Measured values published in publication PMC9848156 (Chemical Science, 2022).
Like-named read-outs stand apart in the source and are kept apart here.

Assays:
[1] = Axial ligand exchange with DMSO, DMF or water followed by 1H-NMR; assay type: physicochemical
3CL^pro [2] = target: T1, 3CL^pro (Severe acute respiratory syndrome coronavirus 2, UniProt P0DTD1); conditions: for IC50: read-out: IC50 against 3CL^pro
[3] = test system: SARS-CoV-2 infected Vero E6 cells
[4] = test system: SARS-CoV-2 infected Huh 7.5.1 cells; conditions: for EC50: read-out: EC50 Huh 7.5.1
Huh 7.5.1 cells = conditions: read-out: CC50 Huh 7.5.1
[5] = target: dipeptidyl peptidase-4 (DPP4) (Homo sapiens, UniProt P27487); assay: DPP4 enzymatic assay; assay type: biochemical; conditions: read-out: IC50 against DPP4; three independent experiments
beta-secretase 1 (BACE1) = beta-secretase 1 (BACE1) (Homo sapiens, UniProt P56817); assay type: biochemical; conditions: read-out: IC50 against BACE1; three independent experiments
cathepsin B = cathepsin B (Homo sapiens, UniProt P07858); assay: Cathepsin B enzymatic assay; assay type: biochemical; conditions: read-out: IC50 against Cathepsin B; three independent experiments
cathepsin L = cathepsin L (Homo sapiens, UniProt P07711); assay: Cathepsin L enzymatic assay; assay type: biochemical; conditions: read-out: IC50 against Cathepsin L; three independent experiments
[6] = target: SARS-CoV-2 Papain-like protease (PL^pro) (Severe acute respiratory syndrome coronavirus 2, UniProt P0DTD1); assay type: biochemical; conditions: read-out: IC50 against PL^pro
Furin = Furin (Homo sapiens, UniProt P09958); assay type: biochemical; conditions: read-out: IC50 against Furin; three independent experiments
[7] = target: transmembrane serine protease 2 (TMPRSS2) (Homo sapiens, UniProt O15393); assay: TMPRSS2 enzymatic assay; assay type: biochemical; conditions: read-out: IC50 against TMPRSS2; three independent experiments
Aqueous solubility tests = assay type: physicochemical; conditions: 0.4–0.1% DMSO or DMF in phosphate-buffered saline
3CL^pro [8] = target: T1, 3CL^pro
3CL^pro [9] = target: T1, 3CL^pro; remark: listed apart in the source
[10] = test system: SARS-CoV-2 infected Vero E6 cells; assay type: cell-based; conditions: immunofluorescence microscopy
Vero E6 cells = conditions: read-out: CC50 Vero E6
in vitro [11] = conditions: African green monkey
in vitro [12] = conditions: human
[13] = test system: SARS-CoV-2 infected Huh 7.5.1 cells; assay: microbe, parasite or virus in culture; conditions: Severe acute respiratory syndrome coronavirus 2, Huh-7.5.1, 48 h, read-out: EC50 Huh 7.5.1

Chain of transmembrane serine protease 2 (TMPRSS2) (O15393 whole entry): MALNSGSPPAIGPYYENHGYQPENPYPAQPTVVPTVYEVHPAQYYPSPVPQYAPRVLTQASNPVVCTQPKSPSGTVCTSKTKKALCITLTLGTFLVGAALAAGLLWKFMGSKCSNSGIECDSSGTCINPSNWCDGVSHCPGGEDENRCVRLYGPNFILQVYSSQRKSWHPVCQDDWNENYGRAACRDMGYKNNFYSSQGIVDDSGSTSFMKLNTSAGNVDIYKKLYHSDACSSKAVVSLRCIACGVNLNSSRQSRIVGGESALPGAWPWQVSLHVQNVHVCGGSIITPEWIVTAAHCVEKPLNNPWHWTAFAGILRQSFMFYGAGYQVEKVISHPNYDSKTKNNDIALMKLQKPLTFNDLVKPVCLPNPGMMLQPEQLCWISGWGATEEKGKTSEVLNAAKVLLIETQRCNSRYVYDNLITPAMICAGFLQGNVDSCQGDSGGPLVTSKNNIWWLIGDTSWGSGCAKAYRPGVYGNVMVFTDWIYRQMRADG
Chain of Furin (P09958 108-794): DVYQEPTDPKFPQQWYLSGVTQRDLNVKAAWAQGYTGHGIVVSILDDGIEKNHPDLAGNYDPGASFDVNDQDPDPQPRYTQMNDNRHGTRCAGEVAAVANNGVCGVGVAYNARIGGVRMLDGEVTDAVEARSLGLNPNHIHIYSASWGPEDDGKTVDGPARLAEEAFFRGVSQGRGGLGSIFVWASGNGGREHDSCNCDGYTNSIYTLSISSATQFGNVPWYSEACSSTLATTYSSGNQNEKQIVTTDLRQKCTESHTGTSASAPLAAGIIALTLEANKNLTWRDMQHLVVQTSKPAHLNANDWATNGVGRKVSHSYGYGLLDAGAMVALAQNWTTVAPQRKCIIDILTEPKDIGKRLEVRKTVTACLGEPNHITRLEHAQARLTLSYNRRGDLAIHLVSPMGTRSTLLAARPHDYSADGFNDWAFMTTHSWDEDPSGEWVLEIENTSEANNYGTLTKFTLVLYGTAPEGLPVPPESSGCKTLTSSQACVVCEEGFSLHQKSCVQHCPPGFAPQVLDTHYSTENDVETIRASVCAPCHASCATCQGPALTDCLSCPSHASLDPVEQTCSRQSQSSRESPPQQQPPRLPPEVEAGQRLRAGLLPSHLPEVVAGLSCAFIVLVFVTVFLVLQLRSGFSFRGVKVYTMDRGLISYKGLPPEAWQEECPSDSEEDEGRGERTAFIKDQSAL
Chain of cathepsin L (P07711 114-333): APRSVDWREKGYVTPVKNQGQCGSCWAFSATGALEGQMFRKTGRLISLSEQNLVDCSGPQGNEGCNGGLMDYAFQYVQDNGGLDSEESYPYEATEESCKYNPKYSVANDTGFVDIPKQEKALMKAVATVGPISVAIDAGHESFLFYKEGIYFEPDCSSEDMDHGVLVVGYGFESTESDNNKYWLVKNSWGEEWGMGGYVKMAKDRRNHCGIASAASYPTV
Chain of beta-secretase 1 (BACE1) (P56817 46-501): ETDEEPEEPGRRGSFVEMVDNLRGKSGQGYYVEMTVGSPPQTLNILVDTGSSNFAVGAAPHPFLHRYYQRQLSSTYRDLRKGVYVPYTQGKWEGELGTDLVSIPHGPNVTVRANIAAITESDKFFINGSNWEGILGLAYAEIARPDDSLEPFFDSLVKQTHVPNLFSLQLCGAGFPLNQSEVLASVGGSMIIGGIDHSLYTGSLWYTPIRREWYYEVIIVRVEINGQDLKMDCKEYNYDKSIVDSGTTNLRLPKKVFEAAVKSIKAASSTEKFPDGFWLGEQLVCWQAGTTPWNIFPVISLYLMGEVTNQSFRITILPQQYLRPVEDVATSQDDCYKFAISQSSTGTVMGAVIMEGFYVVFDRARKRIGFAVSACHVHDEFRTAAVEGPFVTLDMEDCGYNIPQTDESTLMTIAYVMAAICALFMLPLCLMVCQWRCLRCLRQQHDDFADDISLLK
Chain of dipeptidyl peptidase-4 (DPP4) (P27487 whole entry): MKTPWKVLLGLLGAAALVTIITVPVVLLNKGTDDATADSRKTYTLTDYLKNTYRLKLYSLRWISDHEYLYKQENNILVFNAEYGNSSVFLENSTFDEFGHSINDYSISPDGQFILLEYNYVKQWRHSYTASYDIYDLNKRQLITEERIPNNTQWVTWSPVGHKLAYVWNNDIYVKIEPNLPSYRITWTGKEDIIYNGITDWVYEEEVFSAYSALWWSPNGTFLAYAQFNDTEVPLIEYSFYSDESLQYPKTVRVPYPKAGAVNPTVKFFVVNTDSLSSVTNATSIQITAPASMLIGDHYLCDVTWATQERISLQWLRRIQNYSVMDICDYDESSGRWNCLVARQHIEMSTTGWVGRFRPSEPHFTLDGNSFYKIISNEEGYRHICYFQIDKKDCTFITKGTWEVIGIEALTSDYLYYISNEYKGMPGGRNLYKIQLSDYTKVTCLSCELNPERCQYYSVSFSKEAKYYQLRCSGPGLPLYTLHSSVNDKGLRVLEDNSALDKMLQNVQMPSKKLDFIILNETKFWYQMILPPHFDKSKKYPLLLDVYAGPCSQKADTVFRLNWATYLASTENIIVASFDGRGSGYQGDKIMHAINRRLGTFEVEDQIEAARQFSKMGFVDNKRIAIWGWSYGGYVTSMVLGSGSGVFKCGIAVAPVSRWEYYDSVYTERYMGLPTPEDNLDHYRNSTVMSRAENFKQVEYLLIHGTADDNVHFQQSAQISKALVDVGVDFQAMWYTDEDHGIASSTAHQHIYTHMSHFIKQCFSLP

## CS(C)=O.O=C([O-])c1ccccn1.[C-]#[O+].[C-]#[O+].[C-]#[O+].[Re+] [1DMSO, [Re(pic)(CO)3(DMSO)]]
[1]; 2 : 8 DMSO-d6 : H2O, up to 6 h
  aqueous stability of the DMSO adduct: the majority of the compound remained as the DMSO adduct even after 6 h
3CL^pro [2]
  effect of extending the preincubation time on 3CL^pro inhibition: strongly enhance the inhibitory activity over time
  IC50: 16.5 ± 3.4 µM
[3]
  SI Vero E6 (CC50/EC50; therapeutic index): >9
[4]
  SI Huh 7.5.1 (CC50/EC50; therapeutic index): 9
  EC50: 1.8 ± 0.5 µM
Huh 7.5.1 cells
  CC50: 16.5 ± 1.3 µM

## O.O=C([O-])c1ccccn1.[C-]#[O+].[C-]#[O+].[C-]#[O+].[Re+] [Compound 1, [Re(pic)(CO)3(H2O)]]
[5]
  IC50: > 100 µM
beta-secretase 1 (BACE1)
  IC50: 83 ± 6 µM
Cathepsin B
  IC50: > 100 µM
Cathepsin L
  IC50: 53 ± 7 µM
[6]
  IC50: > 100 µM
Furin
  IC50: > 100 µM
[7]
  IC50: > 100 µM
Aqueous solubility tests
  precipitate or aggregate formation by DLS: No particle formation or aggregation was observed
[1]
  time to full exchange of the axial ligand in DMF-d7: ≤ 6 h
[1]; within 5 min
  aqua ligand exchange in DMSO-d6: rapid exchange of the aqua ligand with DMSO
3CL^pro [2]
  IC50: 9.1 ± 1.8 µM
3CL^pro [8]
  Re content bound to protein: 0.7 ± 0.2 equivalents of Re per 3CL^pro
3CL^pro [9]
  adduct formation with 3CL^pro (deconvoluted mass spectrum): a single attached metal complex
  adduct formation with the GC376-3CL^pro adduct (binding competition): did not show the formation of new products

## O=C([O-])c1ncccc1F.[C-]#[O+].[C-]#[O+].[C-]#[O+].[Re+] [Compound 2]
3CL^pro [2]
  IC50: 19 ± 3.7 µM

## O=C([O-])c1cc(O)ccn1.[C-]#[O+].[C-]#[O+].[C-]#[O+].[Re+] [Compound 18]
[5]
  IC50: > 100 µM
beta-secretase 1 (BACE1)
  IC50: 76 ± 8 µM
Cathepsin B
  IC50: > 100 µM
Cathepsin L
  IC50: 67 ± 9 µM
[6]
  IC50: > 100 µM
Furin
  IC50: > 100 µM
[7]
  IC50: > 100 µM
3CL^pro [2]
  IC50: 4.6 ± 0.5 µM

## Nc1ccnc(C(=O)[O-])c1.[C-]#[O+].[C-]#[O+].[C-]#[O+].[Re+] [Compound 20]
3CL^pro [2]
  IC50: 8.4 ± 2.2 µM

## O=C([O-])c1cccc(O)n1.[C-]#[O+].[C-]#[O+].[C-]#[O+].[Re+] [Compound 38]
3CL^pro [2]
  IC50: 8.8 ± 3.4 µM

## COc1cccc(C(=O)[O-])n1.[C-]#[O+].[C-]#[O+].[C-]#[O+].[Re+] [Compound 39]
3CL^pro [2]
  IC50: 8.5 ± 1.9 µM

## Nc1cccc(C(=O)[O-])n1.[C-]#[O+].[C-]#[O+].[C-]#[O+].[Re+] [Compound 40]
3CL^pro [2]
  IC50: 10.9 ± 3.1 µM

## CN1CCN(C(=O)N[C@@H](Cc2ccccc2)C(=O)N[C@H](/C=C/S(=O)(=O)c2ccccc2)CCc2ccccc2)CC1 [K777]
[10]
  concentration protecting cells from viral infection: ≤ 125 nM
[3]; Vero E6 cells
  SI Vero E6 (CC50/EC50; therapeutic index): >222
[3]; read-out: EC50 Vero E6
  EC50: 0.009 ± 0.002 µM
[4]
  EC50: > 2 µM
Vero E6 cells
  CC50: > 2 µM
Huh 7.5.1 cells
  CC50: > 2 µM

## CCC(CC)COC(=O)[C@H](C)N[P@](=O)(OC[C@H]1O[C@@](C#N)(c2ccc3c(N)ncnn23)[C@H](O)[C@@H]1O)Oc1ccccc1 [Remdesivir]
[3]; Vero E6 cells
  SI Vero E6 (CC50/EC50; therapeutic index): >4
[4]; Huh 7.5.1 cells
  SI Huh 7.5.1 (CC50/EC50; therapeutic index): >500
In vitro [11]
  CC50: > 20 µM
In vitro [12]
  CC50: > 20 µM
[13]
  EC50: < 0.04 µM
